According to ChEMBL document CHEMBL5608172, “Structural modification strategies of triazoles in anticancer drug development” (Eur J Med Chem, 2024):
One block for each compound: values may come before it.

Legend:
Detroit 562 = test: Antiproliferative activity against human Detroit 562 cells; format: functional, cell-based
MCF7 [1] = test: Antiproliferative activity against human MCF7 cells assessed as inhibition of cell growth measured after 72 hrs by MTT assay; format: functional, cell-based; settings: MCF7, 72 h
MCF7 [2] = test: Anticancer activity against human MCF7 cells; format: functional, cell-based
[3] = Antiproliferative activity against human WS1 cells assessed as reduction in cell viability incubated for 48 hrs by MTT assay; format: toxicity, cell-based
A549 [4] = test: Antiproliferative activity against human A549 cells assessed as reduction in cell viability incubated for 48 hrs by MTT assay; format: toxicity, cell-based; settings: A549, 48 h
PC-3 [5] = test: Cytotoxicity against human PC-3 cells assessed as reduction in cell growth incubated for 48 hrs by MTT assay; format: functional, cell-based; settings: PC-3, 48 h
A549 [6] = test: Antiproliferative activity against human A549 cells assessed as reduction in cell growth incubated for 72 hrs by MTT assay; format: functional, cell-based; settings: A549, 72 h
SCC-25 = test: Antiproliferative activity against human SCC-25 cells; format: functional, cell-based
Fibroblast = test: Antiproliferative activity against human Fibroblast cells; format: functional, cell-based
HepG2 [7] = test: Antiproliferative activity against human HepG2 cells assessed as inhibition of cell growth measured after 72 hrs by MTT assay; format: functional, cell-based; settings: HepG2, 72 h
U-937 = test: Antiproliferative activity against human U-937 cells; format: functional, cell-based
HL-60 = test: Antiproliferative activity against human HL-60 cells; format: functional, cell-based
BT-474 = test: Antiproliferative activity against human BT-474 cells assessed as inhibition of cell growth measured after 72 hrs by MTT assay; format: functional, cell-based; settings: BT-474, 72 h
PC-3 [8] = test: Antiproliferative activity against human PC-3 cells assessed as reduction in cell viability incubated for 72 hrs by MTT assay; format: functional, cell-based; settings: PC-3, 72 h
K562 [9] = test: Antiproliferative activity against human K562 cells assessed as reduction in cell viability incubated for 72 hrs by MTT assay; format: functional, cell-based; settings: K562, 72 h
HCT-116 = test: Anticancer activity against human HCT-116 cells assessed as reduction in cell viability incubated for 48 hrs by MTT assay; format: functional, cell-based; settings: HCT-116, 48 h
MCF7 [10] = test: Anticancer activity against human MCF7 cells assessed as reduction in cell viability incubated for 48 hrs by MTT assay; format: functional, cell-based; settings: MCF7, 48 h
MCF7 [11] = test: Antiproliferative activity against human MCF7 cells assessed as reduction in cell viability incubated for 24 hrs by SRB assay; format: functional, cell-based; settings: MCF7, 24 h
SGC-7901 = test: Antiproliferative activity against human SGC-7901 cells; format: functional, cell-based
HT-29 = test: Cytotoxicity against human HT-29 cells assessed as reduction in cell viability incubated for 48 hrs by MTT assay; format: functional, cell-based; settings: HT-29, 48 h
HepG2 [12] = test: Cytotoxicity against human HepG2 cells assessed as reduction in cell viability incubated for 48 hrs by MTT assay; format: functional, cell-based; settings: HepG2, 48 h
CCRF-CEM = test: Antiproliferative activity against human CCRF-CEM cells; format: functional, cell-based
NCI-H1650 = test: Antiproliferative activity against human NCI-H1650 cells assessed as reduction in cell growth incubated for 72 hrs by cell-titer glo assay; format: functional, cell-based; settings: NCI-H1650, 72 h
NCI-H1975 = test: Antiproliferative activity against human NCI-H1975 cells assessed as reduction in cell growth incubated for 72 hrs by cell-titer glo assay; format: functional, cell-based; settings: NCI-H1975, 72 h
PC-3 [13] = test: Cytotoxicity against human PC-3 cells assessed as reduction in cell growth incubated for 72 hrs by MTT assay; format: functional, cell-based; settings: PC-3, 72 h
K562 [14] = test: Cytotoxicity against human K562 cells assessed as reduction in cell growth incubated for 72 hrs by MTT assay; format: functional, cell-based; settings: K562, 72 h
[15] = Cytotoxicity against hTERT Lung Fibroblast cells assessed as reduction in cell growth incubated for 72 hrs by MTT assay; format: toxicity, cell-based; settings: human
MCF7 [16] = test: Cytotoxicity against human MCF7 cells assessed as reduction in cell growth incubated for 72 hrs by MTT assay; format: functional, cell-based; settings: MCF7, 72 h

SMILES: COCCOc1cc2ncnc(Nc3cccc(-c4cn(-c5ccccc5/C=C/C(=O)c5cc(OC)c(OC)c(OC)c5)nn4)c3)c2cc1OCCOC
IC50 (Detroit 562): 0.673 µM

SMILES: Cc1ccc(-n2ncc(CN3C(=O)C(F)(F)c4cc(Br)ccc43)n2)cc1Nc1nccc(-c2cccnc2)n1
IC50 at 48 h [3]: 18.6 µM
IC50 (A549 [4]): 7.3 µM

SMILES: NC(=S)N/N=C1/C(=O)N(Cc2cn(CC(=O)c3ccc(Br)cc3)nn2)c2ccccc21
IC50 (PC-3 [5]): 15.3 µM

SMILES: CC(C)CCC1=C(OCc2cn(-c3cccc(Cl)c3)nn2)C(=O)c2ccccc2C1=O
IC50 (SCC-25): 9.81 µM
IC50 (Fibroblast): 210 µM

SMILES: COc1ccc(Cn2cc(Cn3c(=O)c(-c4nc5ccccc5[nH]4)cc4ccccc43)nn2)c(OC)c1OC
IC50 (BT-474): 0.59 µM

SMILES: CC1(C)CC[C@]23CC[C@]4(C)[C@H](CC[C@@H]5[C@@]6(C)Cc7nnn(CCCCC[P+](c8ccccc8)(c8ccccc8)c8ccccc8)c7C(C)(C)[C@@H]6CC[C@]54C)[C@H]2[C@H]1OC3
IC50 (SGC-7901): 1.05 µM

SMILES: O=c1oc2ccccc2c(O)c1Sc1nnc(-c2ccc(Cl)cc2)o1
IC50 (HT-29): 18.6 µM
IC50 (HepG2 [12]): 3.46 µM

SMILES: CC1(C)CC[C@]23CC[C@]4(C)[C@H](CC[C@@H]5[C@@]6(C)CC[C@H](O)C(C)(C)[C@@H]6CC[C@]54C)[C@H]2[C@H]1OC3 [ALLOBETULIN]
IC50 (SGC-7901): 52.2 µM

SMILES: COc1ccc(/C=C\c2cc(OC)c(OC)c(OC)c2)cc1O [COMBRETASTATIN A4]
IC50 (A549 [6]): 0.04 µM

SMILES: C#Cc1cccc(Nc2ncnc3cc(OCCOC)c(OCCOC)cc23)c1 [ERLOTINIB]
IC50 (NCI-H1650): 40 µM
IC50 (NCI-H1975): 37 µM

SMILES: Cc1ccc(NC(=O)c2ccc(CN3CCN(C)CC3)cc2)cc1Nc1nccc(-c2cccnc2)n1 [IMATINIB]
IC50 at 48 h [3]: 9.6 µM
IC50 (A549 [4]): 65 µM

SMILES: Cc1coc2c1C(=O)C(=O)c1c-2ccc2c1CCCC2(C)C [TANSHINONE IIA]
IC50 (PC-3 [13]): 3.2 µM
IC50 (K562 [14]): 4.6 µM

SMILES: C[C@H]1[C@H](C)CC[C@]2(C(=O)O)CC[C@]3(C)C(=CC[C@@H]4[C@@]5(C)CC[C@H](O)C(C)(C)[C@@H]5CC[C@]43C)[C@H]12 [URSOLIC ACID]
IC50 at 72 h [15]: 90.9 µM
IC50 (MCF7 [16]): 25.1 µM

Next, values leading:

IC50 (MCF7 [1]): 0.43 µM
SMILES: COc1cc([N+](=O)[O-])ccc1-n1cc(CN2C(=O)S/C(=C\c3cn(-c4ccccc4)nc3-c3ccccc3)C2=O)nn1

IC50 (MCF7 [2]): 0.3 µM
SMILES: Cc1cc(=O)oc2cc(-n3cc(-c4cccc(-c5cn(-c6ccc7c(C)cc(=O)oc7c6)nn5)c4)nn3)ccc12

IC50 (A549 [6]): 0.57 µM
SMILES: COc1ccc2c(-n3cc(-c4cc(OC)c(OC)c(OC)c4)nn3)c(C(=O)Nc3ccccc3)oc2c1

IC50 (HepG2 [7]): 2.3 µM
SMILES: Cc1ccc(/N=N/c2sc(N/N=C/c3cn(-c4ccccc4)nc3-c3nnn(-c4ccc(Br)cc4)c3C)nc2C)cc1

IC50 (U-937): 2.65 µM
IC50 (HL-60): 2.72 µM
SMILES: Nc1ccc(-c2nnc(Sc3nc4ccccc4n4c(Nc5ccccc5)nnc34)o2)cc1

IC50 (PC-3 [8]): 1.4 µM
IC50 (K562 [9]): 1.3 µM
SMILES: O=C1C(=O)c2cc(Cn3cc(-c4ccccc4)nn3)oc2-c2ccccc21

IC50 (HCT-116): 12.1 µM
IC50 (MCF7 [10]): 17.3 µM
SMILES: CN(C)c1ccc(/C=N/c2nnc(S[C@@H]3O[C@H](CO)[C@@H](O)[C@H](O)[C@H]3O)s2)cc1

IC50 (MCF7 [11]): 4.12 µM
SMILES: CC(=O)OC[C@H]1OC(n2cc(COc3cccc4cccnc34)nn2)[C@@H](OC(C)=O)[C@H](OC(C)=O)[C@H]1OC(C)=O (some centres undefined)

IC50 (HCT-116): 14.4 µM
IC50 (MCF7 [10]): 21.7 µM
SMILES: CN(C)c1ccc(/C=N/c2nnc(S[C@@H]3O[C@H](CO)[C@H](O)[C@H](O)[C@H]3O)s2)cc1

IC50 (CCRF-CEM): 10.5 µM
SMILES: COc1cc(/C=C/C(=O)CC(=O)/C=C/c2ccc(O)c(OC)c2)ccc1O [CURCUMIN]
